Data on 22 compounds can be found in ChEMBL document CHEMBL5126549, “Overview of SIRT5 as a potential therapeutic target: Structure, function and inhibitors” (Eur J Med Chem, 2022).

pIC50: −log10 of the molar value. *1 amine or outer side, *2 acyl side, *3 side chain or, on linkers, in order; H or OH if unused. Where a SMILES comes first, the peptide text is derived from it. Bridges are numbered along the chain shown (N, C = ends). [ ]: non-standard residue; d: D form. X1 = O=C(O)CCNC(=S)NCCCC[C@H](N[*:1])C(=O)[*:2]; Suberoyl = O=C(CCCCCCC(=O)[*:2])[*:1]

For experiment [1], the target named is T1, NAD-dependent protein deacylase sirtuin-5, mitochondrial (Homo sapiens, UniProt Q9NXA8). As to the kind of experiment: Inhibition of SIRT5 (unknown origin).
Target sequence in this assay (Q9NXA8 whole entry): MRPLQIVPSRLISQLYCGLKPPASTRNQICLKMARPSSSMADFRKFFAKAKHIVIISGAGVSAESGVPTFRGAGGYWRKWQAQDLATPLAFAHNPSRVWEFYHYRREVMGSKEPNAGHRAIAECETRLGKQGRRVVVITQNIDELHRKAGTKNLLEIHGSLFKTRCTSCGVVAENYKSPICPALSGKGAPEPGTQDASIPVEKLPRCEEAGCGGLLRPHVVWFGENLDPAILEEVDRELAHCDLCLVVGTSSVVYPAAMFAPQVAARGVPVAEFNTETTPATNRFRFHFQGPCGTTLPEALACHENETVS
In experiment [2] the target is T1, NAD-dependent protein deacylase sirtuin-5, mitochondrial. As to the kind of experiment: Inhibition of GST-tagged SIRT5 (unknown origin) incubated for 10 mins by HPLC based analysis.
Target sequence in this assay (Q9NXA8 whole entry): as above
For experiment [3] the target is unchanged. As to the kind of experiment: Inhibition of SIRT5 (unknown origin) at 30 uM relative to control.
Target sequence in this assay (Q9NXA8 37-310 limits assumed): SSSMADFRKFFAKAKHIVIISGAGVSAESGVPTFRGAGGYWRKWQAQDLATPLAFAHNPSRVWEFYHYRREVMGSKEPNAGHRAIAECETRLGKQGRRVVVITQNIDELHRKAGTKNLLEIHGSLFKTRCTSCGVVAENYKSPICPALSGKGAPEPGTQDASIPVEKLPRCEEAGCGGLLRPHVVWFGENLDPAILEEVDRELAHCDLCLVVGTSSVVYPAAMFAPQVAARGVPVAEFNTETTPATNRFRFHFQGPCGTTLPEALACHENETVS
The target is the same in experiment [4]. As to the kind of experiment: Inhibition of SIRT5 (unknown origin) at 100 uM relative to control.
Target sequence in this assay (Q9NXA8 37-310 limits assumed): as above
Experiment [5] shares this target. As to the kind of experiment: Inhibition of human recombinant SIRT5 using Benzyl-Lys(succinyl)-AMC as substrate incubated for 2 hrs by fluorescence based assay.
Target sequence in this assay (Q9NXA8 whole entry): as the sequence (Q9NXA8 whole entry) above
Experiment [6] shares this target. As to the kind of experiment: Inhibition of GST-tagged SIRT5 (unknown origin) incubated for 5 mins by HPLC based analysis.
Target sequence in this assay (Q9NXA8 whole entry): as above
In experiment [7] the target is T2, NAD-dependent protein deacetylase sirtuin-3, mitochondrial (Homo sapiens, UniProt Q9NTG7).
T2 sequence (Q9NTG7 whole entry): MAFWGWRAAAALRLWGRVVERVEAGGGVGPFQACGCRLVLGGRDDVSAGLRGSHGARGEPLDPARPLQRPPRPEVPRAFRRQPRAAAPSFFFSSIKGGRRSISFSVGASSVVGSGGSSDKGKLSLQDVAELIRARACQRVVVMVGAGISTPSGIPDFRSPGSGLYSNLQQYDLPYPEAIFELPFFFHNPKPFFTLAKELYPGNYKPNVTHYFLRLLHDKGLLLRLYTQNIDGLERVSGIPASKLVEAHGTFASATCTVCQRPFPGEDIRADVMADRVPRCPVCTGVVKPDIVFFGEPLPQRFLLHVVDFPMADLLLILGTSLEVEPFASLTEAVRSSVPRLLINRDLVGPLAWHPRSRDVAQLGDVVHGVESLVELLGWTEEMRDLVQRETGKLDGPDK
As to the kind of experiment: Inhibition of human SIRT3 (118 to 399 aa) expressed in Escherichia coli BL21 cells.

For experiment [8], the target named is T3, NAD-dependent protein deacetylase sirtuin-1 (Homo sapiens, UniProt Q96EB6).
T3 sequence (Q96EB6 whole entry): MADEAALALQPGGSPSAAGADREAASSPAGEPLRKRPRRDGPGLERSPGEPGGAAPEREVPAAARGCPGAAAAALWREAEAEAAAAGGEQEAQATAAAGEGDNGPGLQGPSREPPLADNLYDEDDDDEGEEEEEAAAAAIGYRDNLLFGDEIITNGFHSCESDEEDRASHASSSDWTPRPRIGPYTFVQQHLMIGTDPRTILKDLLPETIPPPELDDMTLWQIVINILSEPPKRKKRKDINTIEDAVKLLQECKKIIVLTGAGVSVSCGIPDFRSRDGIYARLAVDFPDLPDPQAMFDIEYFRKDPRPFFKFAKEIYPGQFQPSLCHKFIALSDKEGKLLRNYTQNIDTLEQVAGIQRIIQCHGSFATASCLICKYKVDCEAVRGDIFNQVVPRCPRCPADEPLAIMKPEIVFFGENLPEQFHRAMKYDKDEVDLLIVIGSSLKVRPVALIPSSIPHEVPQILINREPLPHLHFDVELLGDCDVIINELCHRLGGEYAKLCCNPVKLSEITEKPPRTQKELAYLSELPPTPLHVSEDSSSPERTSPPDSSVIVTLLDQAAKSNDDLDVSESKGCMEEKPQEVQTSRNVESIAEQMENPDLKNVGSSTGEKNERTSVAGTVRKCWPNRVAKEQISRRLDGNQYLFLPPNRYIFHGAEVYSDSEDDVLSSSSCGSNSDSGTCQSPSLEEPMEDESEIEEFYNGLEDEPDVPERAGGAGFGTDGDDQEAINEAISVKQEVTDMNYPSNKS
Kind of experiment: Inhibition of human N-terminal His6 tagged SIRT1 (183-505-(GGGS)2-641-665 residues) expressed in Escherichia coli BL21 cells.

Experiment [9] concerns the target T3, NAD-dependent protein deacetylase sirtuin-1. Kind of experiment: Inhibition of SIRT1 (unknown origin).
In experiment [10] the target is T4, NAD-dependent protein deacetylase sirtuin-2 (Homo sapiens, UniProt Q8IXJ6).
T4 sequence (Q8IXJ6 whole entry): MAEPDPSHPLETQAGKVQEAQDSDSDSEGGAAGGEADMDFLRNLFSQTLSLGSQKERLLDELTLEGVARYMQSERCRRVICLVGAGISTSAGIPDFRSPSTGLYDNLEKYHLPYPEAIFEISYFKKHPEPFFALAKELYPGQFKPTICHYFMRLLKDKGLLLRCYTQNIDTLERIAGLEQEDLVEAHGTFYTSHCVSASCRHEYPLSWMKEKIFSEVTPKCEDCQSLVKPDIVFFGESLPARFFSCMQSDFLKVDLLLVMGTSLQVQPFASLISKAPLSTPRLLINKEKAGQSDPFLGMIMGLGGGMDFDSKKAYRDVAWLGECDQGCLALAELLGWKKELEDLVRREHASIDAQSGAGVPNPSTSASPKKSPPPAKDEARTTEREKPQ
As to the kind of experiment: Inhibition of SIRT2 (unknown origin).

As usually defined, the pIC50 is the IC50 on a negative log10 scale, so that one unit is a factor of ten. The compound `CC1(C)CC[C@]2(C(=O)O)[C@H](O)C[C@]3(C)C(=CC[C@@H]4[C@@]5(C)CC[C@H](O)C(C)(C)[C@@H]5CC[C@]43C)[C@@H]2C1` showed a pIC50 in experiment [1] of 4.40.

As for `N=C(N)NCCCC[C@@H]1NC(=O)CCCCC(=O)NCCCC[C@@H](C(N)=O)NC(=O)[C@H](CCCCNC(=S)NCCC(=O)O)NC1=O`, the pIC50 in [1] is 5.19.

`O=C(O)CCNC(=S)NCCCCC(NC(=O)OCc1ccccc1)C(=O)Nc1ccccc1O` (stereo unspecified): the pIC50 in experiment [2] is greater than 4.82.

Consider `O=C(O)CCNC(=S)NCCCC[C@H](NS(=O)(=O)c1cccc(F)c1)C(=O)N[C@@H](Cc1c[nH]c2ccccc12)C(=O)NC1CCC1`, for which the pIC50 in experiment [1] was greater than 6.52.

What is called inhibition is the percentage by which the read-out fell short of the control. Low readings indicate little suppression, high ones strong suppression. On to `O=C(NCCn1c2ccccc2c2ccccc21)Nc1ccc(C(=O)O)cc1`, for which the inhibition stood at 35% in experiment [3] and 52% in experiment [4].

Compound `CC(C)(C)OC(=O)NC(CCCCNC(=S)NCCC(=O)O)C(=O)Nc1cccc(O)c1` (stereo unspecified) had a pIC50 in [2] greater than 4.82.

With `N=C(N)NCCCC[C@@H]1NC(=O)CCC(=O)NCCCC[C@@H](C(N)=O)NC(=O)[C@H](CCCCNC(=S)NCCC(=O)O)NC1=O`, the pIC50 in experiment [1] is 5.66.

In the case of `N#C/C(=C\c1ccc(-c2ccc(C(=O)O)cc2)o1)C(=O)Nc1ccc(Cl)c([N+](=O)[O-])c1`, the pIC50 in experiment [5] is 5.03.

As for `CC(=O)NC(CCCCNC(=S)NCCC(=O)O)C(=O)Nc1cccc(O)c1` (stereo unspecified), the pIC50 in [2] was greater than 4.82.

Regarding `N#C/C(=C\c1ccc(-c2ccc(C(=O)O)cc2)o1)C(=O)Nc1ccc(C#N)c(F)c1`, the pIC50 in [5] is 5.23.

`O=C(O)CCNC(=S)NCCCC[C@H](NS(=O)(=O)c1cccc(F)c1)C(=O)N[C@@H](Cc1c[nH]c2ccccc12)C(=O)NC1CCCC1`: the pIC50 in experiment [1] was 6.96.

Consider `CC1(C)CC[C@]2(C(=O)O)CC[C@]3(C)C(=CC[C@@H]4[C@@]5(C)CC[C@H](O)C(C)(C)[C@@H]5CC[C@]43C)[C@@H]2C1` [OLEANOLIC_ACID], for which, in experiment [1], the negative-log IC50 (pIC50) was 4.15.

On to `N=C(N)NCCCC[C@@H]1NC(=O)CCCCCCC(=O)NCCCC[C@@H](C(N)=O)NC(=O)[C@H](CCCCNC(=S)NCCC(=O)O)NC1=O`, for which the pIC50 in experiment [1] was 4.88.

In experiment [2], `O=C(O)CCNC(=S)NCCCCC(NC(=O)OCc1ccccc1)C(=O)Nc1ccc(O)cc1` (stereo unspecified) gave a pIC50 greater than 4.82.

`O=C(O)CCNC(=S)NCCCC[C@H](NS(=O)(=O)c1cccc(F)c1)C(=O)N[C@@H](Cc1c[nH]c2ccccc12)C(=O)NC1CC1`: in experiment [1], the pIC50 is greater than 6.52.

Consider `CNC(=O)c1cccc(NC(=O)/C(C#N)=C/c2ccc(-c3ccc(C(=O)O)cc3)o2)c1`, for which the pIC50 in [5] is 5.10.

Consider `CC(=O)N[C@H]1CCCCNC(=O)CNC(=O)CCCCCCC(=O)NC(=O)NCCCC[C@@H](C(=O)N[C@H](C(N)=O)[C@@H](C)O)NC(=O)[C@H](CCCCNC(=S)NCCC(=O)O)NC(=O)[C@H](CCCNC(=N)N)NC1=O`, for which the pIC50 in [6] is 5.22.

As to `CCn1c(=O)n(CC(C)C)c(=O)c2[nH]c(SSc3nc4c([nH]3)c(=O)n(CC(C)C)c(=O)n4CC)nc21`, the pIC50 is 6.37 in [7] and 5.75 in experiment [8].

On to `N=C(N)NCCCC[C@@H]1NC(=O)CCNC(=O)CCC[C@@H](C(N)=O)NC(=O)[C@H](CCCCNC(=S)NCCC(=O)O)NC1=O`, for which the pIC50 in experiment [1] is 5.40.

For the compound `CC1=NN(c2ccc(C)c(Cl)c2)C(=O)/C1=C\c1ccc(-c2ccc(C(=O)O)cc2)o1`, the pIC50 in experiment [5] is 4.74.

Regarding `O=C(O)CC(=S)NCCCC[C@H](NC(=O)OCc1ccccc1)C(=O)Nc1ccccc1`, the pIC50 is 5.30 in experiment [1], 3.59 in experiment [9] and 3.59 in [10].

Take `CC(=O)N[C@H]1CCCCNC(=O)CCCCCCC(=O)NCCCC[C@@H](C(=O)N[C@H](C(N)=O)[C@@H](C)O)NC(=O)[C@H](CCCCNC(=S)NCCC(=O)O)NC(=O)[C@H](CCCNC(=N)N)NC1=O` (Ac-KR[X1]KT-NH2; linker 1-4 via Suberoyl): in [6], the pIC50 is 5.15.
